Two compounds from publication PMC3764405, “Synthesis and evaluation of a ^125I-labeled iminodihydroquinoline-derived tracer for imaging of voltage-gated sodium channels^” (Bioorganic & Medicinal Chemistry Letters, 2013) can be followed below.

The target of this assay is T1, human Nav1.2 isoform (hNav1.2) (Homo sapiens, UniProt Q99250).
T1 construct: gene SCN2A
Put plainly: automated patch clamp, CHO cells transfected with hNav1.[…]. The assay is classed as cell-based. (In general: The patch-clamp technique gives a direct electrical read-out from membranes.)

The IC50 is the point on the concentration scale where inhibition reaches its midpoint. A lower IC50 goes with inhibition by little substance.

T1 sequence (Q99250 whole entry, canonical isoform): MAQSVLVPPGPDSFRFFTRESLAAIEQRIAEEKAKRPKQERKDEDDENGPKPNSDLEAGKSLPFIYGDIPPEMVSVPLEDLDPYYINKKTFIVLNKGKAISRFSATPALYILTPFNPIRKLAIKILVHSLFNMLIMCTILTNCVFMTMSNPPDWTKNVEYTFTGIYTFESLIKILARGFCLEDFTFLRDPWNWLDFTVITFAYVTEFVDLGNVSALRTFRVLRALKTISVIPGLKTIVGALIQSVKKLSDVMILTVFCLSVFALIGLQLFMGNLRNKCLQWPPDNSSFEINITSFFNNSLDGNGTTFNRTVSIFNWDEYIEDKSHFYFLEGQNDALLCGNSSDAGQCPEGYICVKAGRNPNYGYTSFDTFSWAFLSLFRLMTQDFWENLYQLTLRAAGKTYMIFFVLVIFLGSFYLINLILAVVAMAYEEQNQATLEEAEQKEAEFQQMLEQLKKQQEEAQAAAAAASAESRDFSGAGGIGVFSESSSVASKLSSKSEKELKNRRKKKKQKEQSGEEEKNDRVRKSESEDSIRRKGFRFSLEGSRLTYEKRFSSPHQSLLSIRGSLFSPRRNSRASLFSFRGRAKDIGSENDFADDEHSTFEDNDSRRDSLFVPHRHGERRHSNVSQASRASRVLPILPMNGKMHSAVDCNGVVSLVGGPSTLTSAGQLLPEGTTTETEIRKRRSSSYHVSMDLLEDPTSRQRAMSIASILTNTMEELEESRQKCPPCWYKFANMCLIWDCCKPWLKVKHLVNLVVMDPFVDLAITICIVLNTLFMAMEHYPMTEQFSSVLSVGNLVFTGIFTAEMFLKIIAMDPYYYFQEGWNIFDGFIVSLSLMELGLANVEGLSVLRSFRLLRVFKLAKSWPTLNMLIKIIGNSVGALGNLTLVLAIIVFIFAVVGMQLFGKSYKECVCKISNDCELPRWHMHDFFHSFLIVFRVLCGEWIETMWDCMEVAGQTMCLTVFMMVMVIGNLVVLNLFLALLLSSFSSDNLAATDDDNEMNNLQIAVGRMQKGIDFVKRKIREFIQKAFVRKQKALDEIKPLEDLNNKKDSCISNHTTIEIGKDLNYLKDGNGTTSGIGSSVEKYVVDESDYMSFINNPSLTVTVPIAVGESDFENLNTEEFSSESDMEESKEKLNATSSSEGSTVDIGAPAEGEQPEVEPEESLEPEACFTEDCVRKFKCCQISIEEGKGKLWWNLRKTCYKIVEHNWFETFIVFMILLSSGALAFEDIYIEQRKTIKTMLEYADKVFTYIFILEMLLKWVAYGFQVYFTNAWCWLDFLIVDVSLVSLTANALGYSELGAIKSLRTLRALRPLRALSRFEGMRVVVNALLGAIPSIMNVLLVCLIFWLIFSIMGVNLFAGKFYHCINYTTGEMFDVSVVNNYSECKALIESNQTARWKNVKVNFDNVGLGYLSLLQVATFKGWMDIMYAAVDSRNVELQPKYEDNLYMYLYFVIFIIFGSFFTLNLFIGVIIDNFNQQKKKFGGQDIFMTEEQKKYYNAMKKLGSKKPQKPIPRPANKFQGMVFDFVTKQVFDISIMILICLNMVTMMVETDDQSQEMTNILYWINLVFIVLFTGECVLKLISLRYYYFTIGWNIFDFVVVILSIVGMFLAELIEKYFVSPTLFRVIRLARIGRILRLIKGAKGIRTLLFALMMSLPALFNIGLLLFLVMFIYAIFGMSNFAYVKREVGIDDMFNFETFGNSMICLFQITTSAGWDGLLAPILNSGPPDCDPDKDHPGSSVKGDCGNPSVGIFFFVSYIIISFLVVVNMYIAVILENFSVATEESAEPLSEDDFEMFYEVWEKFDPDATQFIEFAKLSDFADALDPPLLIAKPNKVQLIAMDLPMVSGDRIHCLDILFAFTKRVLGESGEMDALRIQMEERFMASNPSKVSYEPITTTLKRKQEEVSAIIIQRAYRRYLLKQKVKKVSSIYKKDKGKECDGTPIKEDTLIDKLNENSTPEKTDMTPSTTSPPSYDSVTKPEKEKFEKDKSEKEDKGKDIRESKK

Regarding `CCCCCN=c1ccn(Cc2ccccc2)c2cc(Cl)ccc12` [WIN17317-3], the IC50 is 2200 ± 1200 nM.

In the case of `CCCCCN=c1ccn(Cc2ccccc2)c2cc(I)ccc12` [compound 10, 10], the midpoint of inhibition, the IC50, lay at 1500 ± 500 nM.
